Test results as given in paper PMC4667779 (Bioorganic & medicinal chemistry, 2014).
Where two headings read alike, the source gives them in different places.

Biological target: Pantothenate synthetase (PanC) from Mtb (Mycobacterium tuberculosis, UniProt P9WIL5)
Format: biochemical

Chain of Pantothenate synthetase (PanC) from Mtb (P9WIL5 whole entry, looked up): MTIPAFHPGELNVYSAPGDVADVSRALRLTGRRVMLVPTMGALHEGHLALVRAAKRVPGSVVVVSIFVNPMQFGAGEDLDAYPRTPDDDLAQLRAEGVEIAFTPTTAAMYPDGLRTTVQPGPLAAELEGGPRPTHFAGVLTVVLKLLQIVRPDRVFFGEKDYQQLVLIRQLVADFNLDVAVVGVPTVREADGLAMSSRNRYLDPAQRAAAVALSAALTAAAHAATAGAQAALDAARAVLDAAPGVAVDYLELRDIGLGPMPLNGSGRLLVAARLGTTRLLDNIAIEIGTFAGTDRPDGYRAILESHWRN

Row | Structure (SMILES) | fold loss in affinity relative to 1a (ratio of Ki values) | other results
1 | CC(C)(C)[C@@H](O)C(=O)NS(=O)(=O)OC[C@H]1O[C@@H](n2cnc3c(N)ncnc32)[C@H](O)[C@@H]1O [1a, 5′-O-[N-((R)-2-Hydroxy-3,3-dimethylbutanoyl)sulfamoyl]adenosine] |  | modality of inhibition with respect to pantoic acid (double-reciprocal plots, fixed ATP and saturating β-alanine): competitive inhibitor towards pantoic acid
2 | CC(C)(C)[C@@H](O)C(=O)NS(=O)(=O)OC[C@H]1O[C@@H](n2cnc3c(N)ncnc32)[C@@H](O)[C@@H]1O [compound 2, 5′-O-[N-((R)-2-Hydroxy-3,3-dimethylbutanoyl)sulfamoyl]vidarabine] | 4–6 fold | 
3 | CC(C)(C)[C@@H](O)C(=O)NS(=O)(=O)OC[C@H]1O[C@@H](n2cnc3c(N)ncnc32)[C@H](F)[C@@H]1O [compound 3, 2′-Deoxy-2′-fluoro-5′-O-[N-((R)-2-Hydroxy-3,3-dimethylbutanoyl)sulfamoyl] adenosine] |  | fold loss in affinity relative to 1a: 2–3 fold
4 | CC(C)(C)[C@@H](O)C(=O)NS(=O)(=O)OC[C@H]1C[C@@H](n2cnc3c(N)ncnc32)[C@H](O)[C@@H]1O [compound 4, 5′-O-[N-((R)-2-Hydroxy-3,3-dimethylbutanoyl)sulfamoyl]aristeromycin] | 2–3 fold | 
5 | CC(C)(CO)[C@@H](O)CNS(=O)(=O)NC[C@H]1O[C@@H](n2cnc3c(N)ncnc32)[C@H](O)[C@@H]1O [compound 5, 5′-Amino-5′-deoxy-5′-N-[N-((R)-2,2-dimethylbutane-1,3-diol-4-yl)sulfamoyl] adenosine] | approximately 13 fold | 
